Test results taken from patent US9493539B2, “Peptides associated with HLA-DR MHC class II molecules involved in autoimmune diseases” (LONDON HEALTH SCIENCES CENTRE RESEARCH INC., priority 2003, dated 2016).
Square brackets hold non-standard residues; d marks the D form. Ends that are not written are not given here. Cit = NC(=O)NCCC[C@H](N)C(=O)O

Experiments:
[1] = tested on: draining lymph node cells; assay: T cell proliferation recall response ([3H] thymidine) after peptide immunization of DR4-IE tg mice; format: cell-based, mouse; conditions: for T cell proliferative response: DR4-IE tg mice immunized with the peptide, 10 days later cells challenged in vitro with same peptide; for proliferative response in presence of anti-DR antibody: immunizing peptide plus anti-DR antibody
Protocol: (§1) DR4 tg mice were immunized intradermally at the interior side of both hind legs with 100 μl of peptide (1 μg/μl) emulsified in CFA (Difco Laboratories, Detroit, Mich.) in a 1:1 volume ratio. After 10 days, mice were sacrificed and their draining lymph nodes were removed for in vitro proliferation and cytokine assays.
(§2) Cell suspensions were prepared from the draining lymph nodes and cultured in 96-well plates at a concentration of 4×10^5 cells/well in the presence or absence of peptide antigen for 4 days. Anti-DR antibody (BD PharMingen, Mississauga, ON) was added to some cultures (1 μg/ml) to confirm DR restricted T cell responses as described previously (Andersson E C, Hansen B E, Jacobsen H, Madsen L S, Andersen C B, Engberg J, Rothbard J B, McDevitt G S, Malmstrom V, Holmdahl R, Svejgaard A, Fugger L. 1998. Definition of MHC and T cell receptor contacts in the HLA-DR4 restricted immunodominant epitope in type II collagen and characterization of collagen-induced arthritis in HLA-DR4 and human CD4 transgenic mice. Proc. Natl. Acad. Sci. USA. 95:7574). Culture supernatants were removed after 78 hrs to test IFN-γ production by ELISA (BD PharMingen, Mississauga, ON) as described previously (Hill, J. A., Wang, D., Jevnikar, A. M., Cairns, E., Bell, D. A. 2002. The relationship between predicted peptide-MHC class II affinity and T cell activation in a HLA-DRβ1*0401 MHC class II mouse model. Arthritis Res. 5:R40). Cytokine production was measured in duplicate and represents the average antigen specific cytokine production (cytokine production in control samples+2 SD were subtracted from the peptide specific cytokine production)±SD. Eighteen hours before culture termination, 1 μCi of [^3H] thymidine (ICN Biomedicals, Montreal, PQ) was added to each well to assess T cell proliferation. Proliferation experiments were conducted in triplicate and results are presented as average proliferation in cpm±SD or stimulation index (cpm of experimental sample/cpm of control sample)±SEM.

[2] = tested on: draining lymph node cells; assay: IFN-γ production by ELISA after in vitro challenge with immunizing peptide; format: cell-based, mouse; conditions: DR4-IE tg mice immunized with the peptide
Protocol: as §1, §2

HLA-DRB1*0101 = HLA-DRB1*0101 (Homo sapiens, UniProt P01903+P01911, A100R/D57E/F55L/F60I/F76Y/I96L/L162R/M171V/P40L/Q125E/R42F/V115G/Y59C); assay: Peptide-binding (competition) assay to purified MHC class II; conditions: DRB1*0101, shared epitope positive
Protocol: (§3) Peptide binding affinity to purified HLA-DRB1*0101, *0401, *0404, *0301, *0701, *0802, *1101, and *1302 molecules was determined relative to radio-labelled peptide probes as described previously (Southwood S, Sidney J, Kondo A, del Guercio M F, Appella E, Hoffman S, Kubo R T, Chesnut R W, Grey H M, Sette A. 1998. Several common HLA-DR types share largely overlapping peptide binding repertoires. J. Immunol. 160:3363). The nM concentration of unlabelled vimentin peptide necessary for 50% inhibition of the labelled peptide to the purified HLA-DRB1 molecules (IC50) was used as an approximation of the affinity of interaction ([…]). Results are expressed as the inverse of the IC50 values measured in nM.

HLA-DRB1*0401 = HLA-DRB1*0401 (Homo sapiens, UniProt P01903+P01911, A100K/A169T/F76Y/I96L/K127E/L162R/M171V/N62H/P40V/Q125Y/R42H/S133A/S149N/S66Y/V115G/V209L/W38E); assay: as above; conditions: DRB1*0401, shared epitope positive
Protocol: as §3

HLA-DRB1*0404 = HLA-DRB1*0404 (Homo sapiens, UniProt P01903+P01911, A100R/A169T/F76Y/I96L/K127E/L162R/M171V/N62H/P40V/Q125Y/R42H/S133A/S149N/S66Y/V209L/W38E); assay: as above; conditions: DRB1*0404, shared epitope positive
Protocol: as §3

[3] = tested on: shared epitope negative (DRB1*0301, *0701, *0802, *1101, *1302); assay: as above; parameters: species or system human
Protocol: as §3

| Substance | T cell proliferative response [1] | proliferative response in presence of anti-DR antibody [1] | IFN-γ production [2] | relative affinity for purified MHC (HLA-DRB1*0101) | relative affinity for purified MHC (HLA-DRB1*0401) | relative affinity for purified MHC (HLA-DRB1*0404) | change of peptide affinity on conversion of arginine to citrulline ([3]; vs Vim 65-77) | activation of T cells primed by Vim R70Cit ([1]; Vim R70Cit immunized mice, challenged with the unmodified peptide, 10 μg/ml) | relative affinity for purified MHC [3] |
| --- | --- | --- | --- | --- | --- | --- | --- | --- | --- |
| AGWLACitRSVRYPI (AGWLA[Cit]RSVRYPI) [P4Cit, altered human aggrecan peptide 280-292] | induced | inhibited | induced | – | – | – | – | – | – |
| AGWLADRSVRYPI (Human) [P4D, human aggrecan peptide 280-292] | strong proliferative response | inhibited | accompanied by IFN-γ production | – | – | – | – | – | – |
| AGWLARRSVRYPI (Human) [P4R, altered human aggrecan peptide 280-292] | did not induce | – | did not induce | – | – | – | – | – | – |
| SAVRACitSSVPGVR (SAVRA[Cit]SSVPGVR) [Vim R70Cit, altered human vimentin peptide 65-77] | strong proliferative response | could also be inhibited | accompanied by IFN-γ production | strikingly high affinity | strikingly high affinity | strikingly high affinity | did not increase peptide affinity | – | – |
| SAVRARSSVPGVR (Human) [Vim 65-77, human vimentin peptide 65-77, unmodified] | did not induce T cell activation | – | did not induce T cell activation | low to intermediate affinity | low to intermediate affinity | low to intermediate affinity | – | could not be activated | low to intermediate affinity |
